Experimental findings from patent US9115145B2, “Tocotrienol derivatives and associated methods” (FIRST TECH INTERNATIONAL LIMITED, priority 2011, dated 2015) are described below.

SMILES strings stand for the structures. Where two headings read alike, the source gives them in different places.

Experiment [1] deals with MCF7 human breast cancer cell line. Kind of experiment: MTT assay of MCF7 cells. In kind it is cell-based. The conditions noted are these: Homo sapiens, media containing 1% fetal bovine serum. As for the experimental part: (§1) MDA-MB-231 and MCF7 cells were plated at a density of 8×10^3 cells/well and 10^4 cells/well in 96-well culture plates, respectively. The compounds were fed in serum free media containing 5% and 1% fetal bovine serum for MDA-MB-231 and MCF7 cells, respectively.

For experiment [2], the system named is MDA-MB-231 human breast cancer cell line. In words: MTT assay of MDA-MB-231 cells. The conditions noted are these: Homo sapiens, media containing 5% fetal bovine serum. In kind it is cell-based. As for the experimental part:
as §1
For orientation: Tetrazolium dyes change colour on reduction, which living cells bring about.

In experiment [3] the test system is MCF 10A non-tumorigenic mammary epithelial cells. Kind of experiment: MTT assay of MCF10A cells. The format is cell-based, human. The note with it: for IC50: Homo sapiens; for Selectivity index: IC50 for MCF 10A divided by IC50 for +SA cell line. As for the experimental part:
MCF 10A (ATCC cat # CRL-10317) normal human non-tumorigenic mammary epithelial cells were maintained in serum-free defined medium consisting of Dulbecco's modified Eagle's medium (DMEM)/F12 containing 5% horse serum, 1% penicillin/streptomycin, 0.5 μg/mL hydrocortisone, 100 ng/mL cholera toxin, 10 μg/mL insulin, and 20 ng/mL epidermal growth factor (rhEGF). For subculturing, cells were rinsed twice with sterile Ca2+ and Mg2+-free phosphate buffered saline (PBS) and incubated in 0.25% trypsin containing 0.025% EDTA in PBS for 5 min at 37° C. The released cells were centrifuged, re-suspended in fresh media and counted using a hemocytometer. For testing, MCF 10A cells were plated at a density of 10×10^4 cells/well. A stock solution of the compounds was prepared in DMSO. DMSO was added to all treatment media such that the final DMSO concentration was the same in all treatment groups within a given experiment and was always less than 0.1%. The compounds were fed in serum free media. MCF10A mammary epithelial cell's viable number was determined by MTT colorimetric assay. […] IC50 values were calculated by non-linear regression using statistical software. The selectivity index indicated in the table represents the IC50 value for the MCF 10A cell line divided by the IC50 value for the +SA cell line.

Experiment [4] concerns MDA-MB-231 human breast cancer cells. Kind of experiment: Wound-healing assay (cell migration). The format is cell-based. The note with it: Homo sapiens; for inhibition at 5 µM: MDA-MB-231, 24 h, wound-healing assay; for IC50: MDA-MB-231, wound-healing assay, dose response, read-out: IC50 antimigratory activity. How it is done: The highly metastatic human breast cancer MDA-MB-231 cells were cultured in RPMI 1640 medium containing 10 mM HEPES, 4 mM L-glutamine, 10% fetal bovine serum, penicillin (100 IU/mL), and streptomycin (50 μg/mL), and grown in a 5% CO2 atmosphere at 37° C. Cells were plated onto sterile 24-well and allowed to recover for a confluent cell monolayer formed in each well (>95% confluence). Wounds were then inflicted to each cell monolayer using a sterile 200 μL pipette tip. Media were removed, cells monolayers were washed twice with PBS, and then fresh media containing test compounds were added to each well. Test compounds were prepared in DMSO at 5 μM concentration and added to the plates, each in triplicate using DMSO as negative control. The incubation was carried out for 24 h under serum-starved conditions, after which media was removed and cells were fixed and stained using a staining composition sold under the trade name Diff Quick (Dade Behring Diagnostics, Aguada, Puerto Rico). The stain comprised a fixative reagent containing 1.8 mg/L triarylmethane dye in methyl alcohol; a first solution of 1 g/L xanthene dye, buffer, and sodium azide (0.01%) as preservative; and a second solution of 1.25 g/L Thiazine dye mixture (0.625 g/L azure A and 0.625 g/L methylene blue) and buffer. The number of cells migrated on the scratched wound were counted under the microscope in three or more randomly selected fields (magnification: 400×). Final results are expressed as mean±SEM per 400× field. The wound-healing assay is a simple method for the study of directional cell migration in vitro.
Compounds were tested for their ability to inhibit the migration of the highly metastatic MDA-MB-231 human breast cancer cells in the wound-healing assay using the procedure described above. Compounds 6, 10, 12, 13, 24, 26, 27, and 29 inhibited the migration of more than 50% of the human breast cancer cells MDA-MB-231 in the wound healing assay at 5 μM dose. […] The antimigratory activity of tocotrienols may be enhanced by a terminal aromatic functionality. The presence of electron withdrawing group, such as nitro in Compound 29, may eliminate the antiproliferative activity yet retain the antimigratory activity of the compound. While the electron donating groups, such as OH and OMe found in Compounds 23 and 26, respectively, retained both antiproliferative and antimigratory activities.
Utilizing similar procedures follow-up testing was conducted on a variety of compounds using a range of compound concentrations. The results of follow-up antimigratory testing are shown in FIG. 35B and Table III below with IC50 values calculated using statistical software.

[5] abbreviates: MCF 10A non-tumorigenic cells, Table I, read-out: IC50 MCF 10A.
Setting [6] is: MCF-10A, MCF10A cells, Table II, non-linear regression, read-out: MCF10A (IC50).

For `CC(C)=CCC/C(C)=C/CC/C(C)=C/CC[C@]1(C)CCc2c3c(cc(C)c2O1)OCN(CCCCCCCCCCCCO)C3` [Compound 44, 12-((R)-6,8-dimethyl-8-((3E,7E)-4,8,12-trimethyltrideca-3,7,11-trienyl)-9,10-dihydrochromeno[5,6-e][1,3]oxazin-2(1H,3H,8H)-yl)dodecan-1-ol], the IC50 – broadly, the concentration needed to halve the response being measured – is greater than 20 µM in experiment [1] and greater than 50 µM in experiment [2].
Turning to `CC(C)=CCC/C(C)=C/CC/C(C)=C/CC[C@]1(C)CCc2c3c(cc(C)c2O1)OCN(CCO)C3` [Compound 10, 2-((R)-6,8-dimethyl-8-((3E,7E)-4,8,12-trimethyltrideca-3,7,11-trienyl)-9,10-dihydrochromeno[5,6-e][1,3]oxazin-2(1H,3H,8H)-yl)ethanol], the IC50 was 6 µM in experiment [1], greater than 5 µM in experiment [2], 3.1 µM in experiment [3] (setting [5]) and 1.3 µM in experiment [4]. The inhibition (usually the relative decrease from the control value, in per cent) at 5 µM in experiment [4] is greater than 50%.
For `CC(C)=CCC/C(C)=C/CC/C(C)=C/CC[C@]1(C)CCc2c3c(c(C)c(C)c2O1)OCN(CCCCCCCCCCO)C3` [Compound 41, 10-((R)-5,6,8-trimethyl-8-((3E,7E)-4,8,12-trimethyltrideca-3,7,11-trienyl)-9,10-dihydrochromeno[5,6-e][1,3]oxazin-2(1H,3H,8H)-yl)decan-1-ol], the figures for the IC50 in experiment [1] and in experiment [2] were 19.4 µM and 15.7 µM, respectively.
Take `CC(C)=CCC/C(C)=C/CC/C(C)=C/CC[C@]1(C)CCc2c3c(c(C)c(C)c2O1)OCN(CCCCO)C3` [Compound 35, 4-((R)-5,6,8-trimethyl-8-((3E,7E)-4,8,12-trimethyltrideca-3,7,11-trienyl)-9,10-dihydrochromeno[5,6-e][1,3]oxazin-2(1H,3H,8H)-yl)butan-1-ol]: the IC50 was greater than 20 µM in experiment [1], 13.8 µM in experiment [2] and 10.7 µM in experiment [4].
Consider `CC(C)=CCC/C(C)=C/CC/C(C)=C/CC[C@]1(C)CCc2c3c(cc(C)c2O1)OCN(CCCCCCCCCCO)C3` [Compound 42, 10-((R)-6,8-dimethyl-8-((3E,7E)-4,8,12-trimethyltrideca-3,7,11-trienyl)-9,10-dihydrochromeno[5,6-e][1,3]oxazin-2(1H,3H,8H)-yl)decan-1-ol], for which the values for the half-maximal inhibitory concentration (IC50) in experiment [1], in experiment [2] and in experiment [4] were 4.6 µM, 12.4 µM and 7.2 µM, respectively.
With `CC(C)=CCC/C(C)=C/CC/C(C)=C/CC[C@]1(C)CCc2c3c(c(C)c(C)c2O1)OCN(CCCCCCO)C3` [Compound 37, 6-((R)-5,6,8-trimethyl-8-((3E,7E)-4,8,12-trimethyltrideca-3,7,11-trienyl)-9,10-dihydrochromeno[5,6-e][1,3]oxazin-2(1H,3H,8H)-yl)hexan-1-ol], the IC50 was greater than 20 µM in experiment [1] and greater than 10 µM in experiment [2].
In the case of `CC(C)=CCC/C(C)=C/CC/C(C)=C/CC[C@]1(C)CCc2c3c(c(C)c(C)c2O1)OCN(CCCCCCCCO)C3` [Compound 39, 8-((R)-5,6,8-trimethyl-8-((3E,7E)-4,8,12-trimethyltrideca-3,7,11-trienyl)-9,10-dihydrochromeno[5,6-e][1,3]oxazin-2(1H,3H,8H)-yl)octan-1-ol], the IC50 is greater than 20 µM in experiment [1]; greater than 20 µM in experiment [2]; 2 µM in experiment [3] (setting [6]); 2 µM in experiment [3] (setting [5]); 4.7 µM in experiment [4]. Also, the Selectivity index in experiment [3] is recorded as 1.43.
With `CC(C)=CCC/C(C)=C/CC/C(C)=C/CC[C@]1(C)CCc2c3c(c(C)c(C)c2O1)OCN(CCCO)C3` [Compound 12, 3-((R)-5,6,8-trimethyl-8-((3E,7E)-4,8,12-trimethyltrideca-3,7,11-trienyl)-9,10-dihydrochromeno[5,6-e][1,3]oxazin-2(1H,3H,8H)-yl)propan-1-ol], the IC50 in experiment [1] is greater than 20 µM; in experiment [2], 9.6 µM; in experiment [4], 8.1 µM. For the same compound, the inhibition at 5 µM in experiment [4] was greater than 50%.
As for `CC(C)=CCC/C(C)=C/CC/C(C)=C/CC[C@]1(C)CCc2c3c(cc(C)c2O1)OCN(CCCCCO)C3` [Compound 18, 5-((R)-6,8-dimethyl-8-((3E,7E)-4,8,12-trimethyltrideca-3,7,11-trienyl)-9,10-dihydrochromeno[5,6-e][1,3]oxazin-2(1H,3H,8H)-yl)pentan-1-ol], the IC50 in experiment [1] came out at 9.1 µM; in experiment [2] it was 9 µM; in experiment [3] (setting [6]), 4.6 µM; in experiment [3] (setting [5]), 4.6 µM. Moreover, the Selectivity index in experiment [3] was 6.57.
Compound `COc1ccc(CCN2COc3cc(C)c4c(c3C2)CC[C@@](C)(CC/C=C(\C)CC/C=C(\C)CCC=C(C)C)O4)cc1OC` [Compound 24, (R)-2-(3,4-dimethoxyphenethyl)-6,8-dimethyl-8-((3E,7E)-4,8,12-trimethyltrideca-3,7,11-trienyl)-1,2,3,8,9,10-hexahydrochromeno[5,6-e][1,3]oxazine] showed an inhibition at 5 µM in experiment [4] greater than 50%.
Turning to `CC(C)=CCC/C(C)=C/CC/C(C)=C/CC[C@]1(C)CCc2c3c(cc(C)c2O1)OCN(CCc1ccc(O)cc1)C3` [Compound 27, 4-(2-((R)-6,8-dimethyl-8-((3E,7E)-4,8,12-trimethyltrideca-3,7,11-trienyl)-9,10-dihydrochromeno[5,6-e][1,3]oxazin-2(1H,3H,8H)-yl)ethyl)phenol], the IC50 in experiment [1] is 18.2 µM; in experiment [2] it was greater than 5 µM; in experiment [3] (setting [6]), 1.9 µM; in experiment [3] (setting [5]) it was 1.9 µM; in experiment [4], 2.4 µM. The compound also had a Selectivity index in experiment [3] of 2.09. Also, the inhibition at 5 µM in experiment [4] is greater than 50%.
Turning to `CC(C)=CCC/C(C)=C/CC/C(C)=C/CC[C@]1(C)CCc2c3c(c(C)c(C)c2O1)OCN(CCCCCCCCCCCCO)C3` [Compound 43, 12-((R)-5,6,8-trimethyl-8-((3E,7E)-4,8,12-trimethyltrideca-3,7,11-trienyl)-9,10-dihydrochromeno[5,6-e][1,3]oxazin-2(1H,3H,8H)-yl)dodecan-1-ol], the IC50 in experiment [1] is greater than 20 µM; in experiment [2] it was greater than 50 µM.
